Like-named read-outs stand apart in the source and are kept apart here.
Key:
lysyl oxidase [1] = molecular target: T1, lysyl oxidase (Bos taurus, UniProt P33072); assay: Lysyl oxidase peroxidase-coupled fluorescence assay of n-hexylamine oxidation; assay type: biochemical, bovine
T1 construct: Lysyl oxidase was purified from bovine aorta as previously described; from tissue; host or cells: bovine aorta
T1 sequence (P33072 170-418): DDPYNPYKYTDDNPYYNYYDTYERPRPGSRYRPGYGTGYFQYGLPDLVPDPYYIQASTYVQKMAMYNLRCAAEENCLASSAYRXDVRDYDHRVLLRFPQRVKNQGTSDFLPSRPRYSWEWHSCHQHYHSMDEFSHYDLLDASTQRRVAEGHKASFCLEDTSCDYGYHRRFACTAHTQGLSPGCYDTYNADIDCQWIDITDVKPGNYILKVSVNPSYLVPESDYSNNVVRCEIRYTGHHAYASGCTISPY
Description: Lysyl oxidase was purified from bovine aorta as previously described. [Williams, M. A. and H. M. Kagan, Anal. Biochem. 113:336 (1985)].
(§1) The purified lysyl oxidase enzyme was also assayed against alkyl monoamines and alkyl diamines using the reported peroxidase-coupled fluorescence method at 55° C. [Trackman et al., Anal. Biochem. 113:336-342 (1981)]. The reaction mixtures contained 40 ug horseradish peroxidase, 0.7 mM homovanillic acid, 1.2M urea, 0.02M potassium phosphate/borate buffer, at pH 8 (or at varying values of pH as indicated) in a total volume of 2 ml. Assay solutions were adjusted to an ionic strength of 0.04 using potassium chloride. Lysyl oxidase was then added to initiate the reaction. Fluorescence was continuously monitored at an excitation wavelength of 315 nm and an emission wavelength of 425 nm. The enzyme-dependent production of hydrogen peroxide was quantified by reference to standard plots relating nanomoles of hydrogen peroxide added to fluorescence units. […] Kinetic constants were derived from initial rate assay data by using the Fortan program of Cleland [Meth. Enzymol. 63:103-138 (1979)] which determines Vmax and Km values from data of Michaelis-Menten experiments using a least squares fitting procedure applied to the Michaelis-Menten equation.
The pH-dependency of the Vmax for the oxidation of a series of diamines and monoamine substrates by lysyl oxidase was first explored.
(§2) Accordingly cis and trans isomers of DACH were used to probe this possibility.

lysyl oxidase [2] = molecular target: T1, lysyl oxidase; assay: Release of 3H+ from [1,2-3H]DACH by lysyl oxidase; assay type: biochemical, bovine; conditions: for Ratio ^3 H^+/Oxidant / ^3 H^+ Released: 1 mM [^3 H]DACH; for ^3 H^+ Released: pH 8, 37°C, maximum level
Description: ^a/ The indicated amounts of PQQ or functional active sites of lysyl
oxidase were incubated with [^3 H]DACH (1 mM; 0.13 mCi/mmole) in 50 m
sodium borate, pH 8, at 37°C. and aliquots of the incubation
mixture were removed at intervals, distilled in vacuo and the isolated
[^3 H]H2 O was quantified by liquid scintillation spectrometry.
The values shown are the maximum levels accumulated in these assays and
are corrected for minor background
effects in the absence of oxidant.
Toward similar ends [1,2-^3 H]DACH was synthesized and used to determine whether the reaction of this diamine with limiting quantities of free PQQ or of lysyl oxidase would result in the release of ^3 H^+ --a result to be expected if carbon 1 and/or carbon 2 positions of cis-DACH were oxidized in these reaction mixtures. As provided by Table E2, approximately 2 moles of ^3 H^+ were released per mole of each limiting reactant; with a maximum of 2.30 moles of ^3 H^+ released per mole of PQQ and a maximum of 1.88 moles of ^3 H^+ released per mole of functional active site in lysyl oxidase. While the synthetic, tritiated product used in these studies consisted of a mixture of the cis and trans isomers, the concentration of [^3 H]DACH incubated with the lysyl oxidase enzyme was sufficiently low to restrict the reaction primarily to the cis isomer--based upon the previous assessment of the relative potency of these compounds as inhibitors of lysyl oxidase or as perturbants of the spectrum of PQQ.

lysyl oxidase [3] = molecular target: T1, lysyl oxidase; assay: Irreversible, time-dependent inactivation of lysyl oxidase (preincubation, then dialysis or dilution into the assay); assay type: biochemical, bovine; conditions: for rate of inactivation under anaerobic conditions: anaerobic / nitrogen-purged
Description: as §2
In addition, the time-dependency for the expression of irreversible inhibition was assessed by initially preincubating lysyl oxidase at 37° in the presence or absence of various concentrations of cis-DACH; and then diluting aliquots of these individual reaction mixtures into peroxidase-coupled assays for n-hexylamine oxidation - thereby reducing the cis-DACH concentrations to non-inhibitory levels within the lysyl oxidase assays. […] The possibility that the inactivation derived from the removal of the metal ion cofactor of the enzyme by the cyclic diamine was then assessed by atomic absorption spectroscopy.

lysyl oxidase [4] = molecular target: T1, lysyl oxidase; assay: Release of H2O2 on oxidation of cis-DACH by lysyl oxidase; assay type: biochemical, bovine; conditions: for Ratio H2O2/Oxidant / H2O2 Released: 1 mM cis-DACH; for H2O2 Released: maximal release
Description: as §1
In view of the apparent inhibiting effect of anaerobic conditions on the induction by cis-DACH of changes in the spectra of PQQ and lysyl oxidase, the possibility was evaluated that oxidation of the diamine substrate analogue may be involved in the development of irreversible inhibition of lysyl oxidase. […] This argues against significant catalytic turnover with the cyclic diamine. Nevertheless, as illustrated by FIG. 7, the development of irreversible inhibition was strongly dependent upon the presence of oxygen since the rate of inactivation was negligible under anaerobic conditions.
Toward that end, evidence was sought for the release of H2 O2 upon the reaction of cis-DACH with limiting amounts of PQQ or of relatively large quantities (although limiting relative to cis-DACH) of pure lysyl oxidase. As given by Table E1, hydrogen peroxide formation was seen under these conditions with the maximum levels of H2 O2 formed essentially equal to the amount of the limiting reactant in both cases, i.e., free PQQ or lysyl oxidase, respectively.
^a/ Hydrogen peroxide as assayed in the peroxidasecoupled fluorescenc
assay using 1 mM cisDACH as the sole source of amine substrate and
containing lysyl oxidase or PQQ at the indicated amounts. Incubations wer
continued until the release of H2 O2 was maximal in each case.
The quantity of lysyl oxidase used is expressed in the Table in terms of
functional active site content. The concentration of PQQ was determined
using 19,122 as the molar extinction coefficent.

lysyl oxidase [5] = molecular target: T1, lysyl oxidase; assay: Perturbation of the absorption spectrum of lysyl oxidase; set-up: species or system bovine
Description: Absorption spectra were recorded in 1 cm cuvettes with a Hewlett Packard Diode Array spectrophotometer, with temperatures controlled by circulating water through the cuvette holder. Mixtures were made anaerobic by purging buffers and stock solutions in rubber-capped tubes with high purity nitrogen for 15 min, and then injecting aliquots of the solutions into a 1 cm semi-micro cuvette fitted with a rubber septum and flushed with nitrogen before addition of reagents. Once in the capped cuvette, each solution was further exposed to a stream of nitrogen passed over the surface of the solution and out of the capped cuvette through 21 guage needles for 5 min. just prior to spectral recording. Each perturbation described was reproducible in three or more trials.
Increased absorption occurs in accordance with an increase in optical density occurring in the region of 250 nm; a broad peak also develops with a maximum absorbance at 350-355 nm upon incubation of 47 uM cis-DACH with 4.25 uM of functional active sites in lysyl oxidase as shown in FIG. 6B. The absorption peak at 350-355 nm correlates quite well with a peak generated at the same position in the spectrum of PQQ by its interaction with cis-DACH.

lysyl oxidase [6] = molecular target: T1, lysyl oxidase; assay: Protein-bound copper of lysyl oxidase by atomic absorption spectroscopy; set-up: species or system bovine; conditions: 1 mM, then dialyzed against metal-free buffer
Description: In addition, the time-dependency for the expression of irreversible inhibition was assessed by initially preincubating lysyl oxidase at 37° in the presence or absence of various concentrations of cis-DACH; and then diluting aliquots of these individual reaction mixtures into peroxidase-coupled assays for n-hexylamine oxidation - thereby reducing the cis-DACH concentrations to non-inhibitory levels within the lysyl oxidase assays. […] This is illustrated by FIG. 4. […] The possibility that the inactivation derived from the removal of the metal ion cofactor of the enzyme by the cyclic diamine was then assessed by atomic absorption spectroscopy. This method of analysis yielded the same values for protein-bound copper in aliquots of purified lysyl oxidase which had been incubated in either the presence or absence of 1 mM cis-DACH and then dialyzed extensively against metal-free buffer.

[7] = lysyl oxidase as oxidant, mean of 3 amounts
[8] = n-hexylamine substrate, competitive, read-out: KI, competitive inhibition of lysyl oxidase activity against n-hexylamine

N[C@@H]1CCCC[C@H]1N (relative stereo) [trans-DACH, 1,2-Diaminocyclohexane, reference compound]
IC50 (lysyl oxidase [1]; n-hexylamine oxidation, extrapolated, read-out: (extrapolated) I50 in assays of n-hexylamine oxidation): > 10000 µM | fold less inhibitory than cis-DACH (lysyl oxidase [1]; n-hexylamine oxidation, relative to cis-DACH): at least 10,000 fold

[3H]C1(N)CCCCC1([3H])N (centres unmarked) [[1,2-^3 H]DACH, [1,2-^3 H]-1,2-diaminocyclohexane]
Ratio ^3 H^+/Oxidant (lysyl oxidase [2]; 0.50 nanomoles lysyl oxidase active sites): 1.96 | ^3 H^+ Released (lysyl oxidase [2]; 0.50 nanomoles lysyl oxidase functional active sites): 0.98 Nanomoles | Ratio ^3 H^+/Oxidant (lysyl oxidase [2]; 1.24 nanomoles lysyl oxidase active sites): 1.80 | ^3 H^+ Released (lysyl oxidase [2]; 1.24 nanomoles lysyl oxidase functional active sites): 2.23 Nanomoles | Ratio ^3 H^+/Oxidant (lysyl oxidase [2]; 3.72 nanomoles lysyl oxidase active sites): 1.87 | ^3 H^+ Released (lysyl oxidase [2]; 3.72 nanomoles lysyl oxidase functional active sites): 6.95 Nanomoles | ^3 H^+ released per mole of functional active site in lysyl oxidase (lysyl oxidase [2]; limiting lysyl oxidase): 1.88 moles of ^3 H^+ released per mole of functional active site | Ratio ^3 H^+/Oxidant, mean (lysyl oxidase [2]; [7]): 1.88 ± 0.07

N[C@@H]1CCCC[C@@H]1N [cis-DACH, 1,2-Diaminocyclohexane]
rate of inactivation under anaerobic conditions (lysyl oxidase [3]): negligible | reversibility of inhibition (lysyl oxidase [3]; enzyme preincubated with 0.05M cis-DACH at 37° for 15 min, then dialyzed): irreversible | kinact (lysyl oxidase [3]; preincubation at 37°, secondary reciprocal plot, read-out: limiting apparent first order rate constant for inactivation, Kinact (converted)): 0.3 s⁻¹ | Ratio H2O2/Oxidant (lysyl oxidase [4]; 0.71 nanomoles lysyl oxidase active sites): 1.40 | H2O2 Released (lysyl oxidase [4]; 0.71 nanomoles lysyl oxidase functional active sites): 1.0 nmol | Ratio H2O2/Oxidant (lysyl oxidase [4]; 1.78 nanomoles lysyl oxidase active sites): 0.96 | H2O2 Released (lysyl oxidase [4]; 1.78 nanomoles lysyl oxidase functional active sites): 1.70 nmol | formation of H2O2 with catalytic quantities of lysyl oxidase (lysyl oxidase [4]; 2-4 ug lysyl oxidase, limit of sensitivity ca. 1 nanomole of H2O2): not detectable | Ratio H2O2/Oxidant (lysyl oxidase [4]; 2.20 nanomoles lysyl oxidase active sites): 0.69 | H2O2 Released (lysyl oxidase [4]; 2.20 nanomoles lysyl oxidase functional active sites): 1.52 nmol | Ratio H2O2/Oxidant, mean (lysyl oxidase [4]; [7]): 1.02 ± 0.29 | perturbation of the lysyl oxidase spectrum (lysyl oxidase [5]; aerobic, 47 uM cis-DACH with 4.25 uM functional active sites): perturbed | perturbation of the lysyl oxidase spectrum under anaerobic conditions (lysyl oxidase [5]; anaerobic): not altered significantly | removal of copper from the active site (lysyl oxidase [6]): did not remove copper | Ki (lysyl oxidase [1]; as restated in the summary, read-out: KI): 0.38 µM | IC50 (lysyl oxidase [1]; n-hexylamine oxidation, read-out: I50 in assays of n-hexylamine oxidation): 1.5 µM | Ki (lysyl oxidase [1]; [8]): 0.38 µM

NCCN [EDA, Ethylenediamine]
rate of inactivation under anaerobic conditions (lysyl oxidase [3]): markedly reduced | Ki (lysyl oxidase [1]; [8]): 2 µM

Source: patent US4997854A, “Anti-fibrotic agents and methods for inhibiting the activity of lysyl oxidase in-situ using adjacently positioned diamine analogue substrates” (Trustees of Boston University, priority 1989, dated 1991)
